ChEMBL document CHEMBL5465560, “Selectivity Literature for EUbOPEN Chemogenomic Library” (2024)

Columns and labels:
SRSF protein kinase 1 = SRSF protein kinase 1 (Homo sapiens, UniProt Q96SB4); assay: Selectivity interaction (ProQinase) EUB0000171b SRPK1
[1] = molecular target: T1, Alpha-1B adrenergic receptor (Homo sapiens) (UniProt P35368); assay: Selectivity interaction (Panel of kinases, GPCRs, ion channels and transporters (enzymatic assay)) EUB0000266bCl ADRA1B
T1 sequence (whole entry): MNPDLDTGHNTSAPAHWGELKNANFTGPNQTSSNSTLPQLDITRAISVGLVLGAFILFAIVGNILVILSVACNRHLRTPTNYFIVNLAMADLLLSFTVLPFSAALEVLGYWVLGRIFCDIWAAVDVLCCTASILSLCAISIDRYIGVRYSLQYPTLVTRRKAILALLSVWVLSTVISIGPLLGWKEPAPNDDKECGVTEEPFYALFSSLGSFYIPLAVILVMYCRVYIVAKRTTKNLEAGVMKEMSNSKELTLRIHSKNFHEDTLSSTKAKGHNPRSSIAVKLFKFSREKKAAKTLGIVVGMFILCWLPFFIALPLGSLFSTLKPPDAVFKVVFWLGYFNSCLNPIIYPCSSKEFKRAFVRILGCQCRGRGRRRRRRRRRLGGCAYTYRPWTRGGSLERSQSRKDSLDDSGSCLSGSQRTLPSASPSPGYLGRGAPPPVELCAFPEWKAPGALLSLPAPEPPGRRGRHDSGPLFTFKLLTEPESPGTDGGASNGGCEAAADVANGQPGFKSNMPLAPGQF

[2] = molecular target: Glycogen synthase kinase-3 beta (Homo sapiens, UniProt P49841); assay: Selectivity interaction (Kinase panel (DSF assay)) EUB0001559a GSK3B
Focal adhesion kinase 1 = Focal adhesion kinase 1 (Homo sapiens, UniProt Q05397); assay: Selectivity interaction (KinomeScan (DiscoverX)) EUB0001079a PTK2; details: at 1 µM
[3] = molecular target: Tyrosine-protein kinase HCK (Homo sapiens) (UniProt P08631); assay: Selectivity interaction (KinomeScan (DiscoverX)) EUB0000666a HCK; details: at 10 µM
[4] = molecular target: Mitogen-activated protein kinase 7 (Homo sapiens) (UniProt Q13164); assay: Selectivity interaction (KinomeScan (DiscoverX)) EUB0000666a MAPK7; details: at 10 µM
[5] = molecular target: T2, cAMP-dependent protein kinase catalytic subunit PRKX (Homo sapiens) (UniProt P51817); assay: Selectivity interaction (Kinase panel (Z-LYTE Assay)) EUB0001632a PRKX; details: at 10 µM
T2 sequence (whole entry): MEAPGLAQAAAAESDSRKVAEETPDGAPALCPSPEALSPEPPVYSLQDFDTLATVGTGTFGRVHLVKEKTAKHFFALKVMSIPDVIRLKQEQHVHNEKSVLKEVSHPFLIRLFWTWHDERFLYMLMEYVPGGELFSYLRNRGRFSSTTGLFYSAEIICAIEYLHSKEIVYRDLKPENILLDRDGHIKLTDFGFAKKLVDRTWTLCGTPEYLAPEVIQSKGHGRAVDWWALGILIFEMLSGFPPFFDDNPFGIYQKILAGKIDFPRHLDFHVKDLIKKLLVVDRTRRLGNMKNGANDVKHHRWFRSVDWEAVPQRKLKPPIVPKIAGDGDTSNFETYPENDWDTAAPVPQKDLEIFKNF

[6] = molecular target: Mitogen-activated protein kinase kinase kinase kinase 5 (Homo sapiens) (UniProt Q9Y4K4); assay: Selectivity interaction (Kinase panel (Invitrogen)) EUB0000639a MAP4K5; details: at 200 nM
[7] = molecular target: T3, Phosphorylase b kinase gamma catalytic chain, liver/testis isoform (Homo sapiens) (UniProt P15735); assay: Selectivity interaction (ActivX KiNativ screen (kinase selectivity in THP-1 cell lysates)) EUB0000639a PHKG2; assay type: subcellular; details: lysate
T3 sequence (whole entry): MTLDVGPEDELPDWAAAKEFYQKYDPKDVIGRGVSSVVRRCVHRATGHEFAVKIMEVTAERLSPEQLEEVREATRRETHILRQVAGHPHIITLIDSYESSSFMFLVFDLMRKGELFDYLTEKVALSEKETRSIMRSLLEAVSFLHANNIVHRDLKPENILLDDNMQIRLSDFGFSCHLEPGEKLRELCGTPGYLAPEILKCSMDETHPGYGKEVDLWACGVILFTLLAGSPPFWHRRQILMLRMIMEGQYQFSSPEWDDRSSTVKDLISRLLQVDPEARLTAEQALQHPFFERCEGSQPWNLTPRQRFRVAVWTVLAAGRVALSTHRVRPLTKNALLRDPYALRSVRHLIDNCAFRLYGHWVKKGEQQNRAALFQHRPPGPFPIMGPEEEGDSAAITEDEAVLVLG

[8] = molecular target: T4, Mitogen-activated protein kinase kinase kinase kinase 2 (Homo sapiens) (UniProt Q12851); assay: Selectivity interaction (KinomeScan (DiscoverX)) EUB0000695a MAP4K2; details: at 100 nM
T4 sequence (whole entry): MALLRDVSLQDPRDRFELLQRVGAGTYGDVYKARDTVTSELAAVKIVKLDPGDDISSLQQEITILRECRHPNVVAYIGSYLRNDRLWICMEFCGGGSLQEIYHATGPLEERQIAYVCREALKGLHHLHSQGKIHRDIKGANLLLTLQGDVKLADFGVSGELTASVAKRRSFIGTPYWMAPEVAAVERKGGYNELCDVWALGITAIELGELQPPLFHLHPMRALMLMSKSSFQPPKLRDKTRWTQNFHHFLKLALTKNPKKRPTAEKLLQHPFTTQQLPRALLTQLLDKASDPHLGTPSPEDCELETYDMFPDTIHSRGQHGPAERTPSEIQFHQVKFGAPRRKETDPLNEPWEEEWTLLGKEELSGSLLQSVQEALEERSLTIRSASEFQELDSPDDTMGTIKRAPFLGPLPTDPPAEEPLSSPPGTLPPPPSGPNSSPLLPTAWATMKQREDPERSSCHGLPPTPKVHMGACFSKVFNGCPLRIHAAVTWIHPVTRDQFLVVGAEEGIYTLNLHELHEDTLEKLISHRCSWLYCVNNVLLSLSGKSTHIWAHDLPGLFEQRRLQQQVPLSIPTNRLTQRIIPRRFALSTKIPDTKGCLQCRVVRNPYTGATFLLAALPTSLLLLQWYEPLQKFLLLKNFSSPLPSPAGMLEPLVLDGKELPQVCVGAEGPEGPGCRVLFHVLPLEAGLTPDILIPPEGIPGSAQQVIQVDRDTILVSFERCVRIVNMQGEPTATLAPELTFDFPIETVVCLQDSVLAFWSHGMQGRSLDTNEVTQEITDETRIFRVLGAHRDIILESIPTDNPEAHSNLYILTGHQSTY

[9] = molecular target: Proto-oncogene tyrosine-protein kinase ROS (Homo sapiens) (UniProt P08922); assay: Selectivity interaction (KinomeScan (DiscoverX)) EUB0000695a ROS1; details: at 100 nM
[10] = molecular target: Mitogen-activated protein kinase kinase kinase 1 (Homo sapiens, UniProt Q13233); assay: Selectivity interaction (ActivX KiNativ screen (ex vivo kinase selectivity in human PBMCs)) EUB0001619a MAP3K1; assay type: cell-based; details: PBMC, at 1 µM
Chain of Mitogen-activated protein kinase kinase kinase 1 (Q13233 whole entry): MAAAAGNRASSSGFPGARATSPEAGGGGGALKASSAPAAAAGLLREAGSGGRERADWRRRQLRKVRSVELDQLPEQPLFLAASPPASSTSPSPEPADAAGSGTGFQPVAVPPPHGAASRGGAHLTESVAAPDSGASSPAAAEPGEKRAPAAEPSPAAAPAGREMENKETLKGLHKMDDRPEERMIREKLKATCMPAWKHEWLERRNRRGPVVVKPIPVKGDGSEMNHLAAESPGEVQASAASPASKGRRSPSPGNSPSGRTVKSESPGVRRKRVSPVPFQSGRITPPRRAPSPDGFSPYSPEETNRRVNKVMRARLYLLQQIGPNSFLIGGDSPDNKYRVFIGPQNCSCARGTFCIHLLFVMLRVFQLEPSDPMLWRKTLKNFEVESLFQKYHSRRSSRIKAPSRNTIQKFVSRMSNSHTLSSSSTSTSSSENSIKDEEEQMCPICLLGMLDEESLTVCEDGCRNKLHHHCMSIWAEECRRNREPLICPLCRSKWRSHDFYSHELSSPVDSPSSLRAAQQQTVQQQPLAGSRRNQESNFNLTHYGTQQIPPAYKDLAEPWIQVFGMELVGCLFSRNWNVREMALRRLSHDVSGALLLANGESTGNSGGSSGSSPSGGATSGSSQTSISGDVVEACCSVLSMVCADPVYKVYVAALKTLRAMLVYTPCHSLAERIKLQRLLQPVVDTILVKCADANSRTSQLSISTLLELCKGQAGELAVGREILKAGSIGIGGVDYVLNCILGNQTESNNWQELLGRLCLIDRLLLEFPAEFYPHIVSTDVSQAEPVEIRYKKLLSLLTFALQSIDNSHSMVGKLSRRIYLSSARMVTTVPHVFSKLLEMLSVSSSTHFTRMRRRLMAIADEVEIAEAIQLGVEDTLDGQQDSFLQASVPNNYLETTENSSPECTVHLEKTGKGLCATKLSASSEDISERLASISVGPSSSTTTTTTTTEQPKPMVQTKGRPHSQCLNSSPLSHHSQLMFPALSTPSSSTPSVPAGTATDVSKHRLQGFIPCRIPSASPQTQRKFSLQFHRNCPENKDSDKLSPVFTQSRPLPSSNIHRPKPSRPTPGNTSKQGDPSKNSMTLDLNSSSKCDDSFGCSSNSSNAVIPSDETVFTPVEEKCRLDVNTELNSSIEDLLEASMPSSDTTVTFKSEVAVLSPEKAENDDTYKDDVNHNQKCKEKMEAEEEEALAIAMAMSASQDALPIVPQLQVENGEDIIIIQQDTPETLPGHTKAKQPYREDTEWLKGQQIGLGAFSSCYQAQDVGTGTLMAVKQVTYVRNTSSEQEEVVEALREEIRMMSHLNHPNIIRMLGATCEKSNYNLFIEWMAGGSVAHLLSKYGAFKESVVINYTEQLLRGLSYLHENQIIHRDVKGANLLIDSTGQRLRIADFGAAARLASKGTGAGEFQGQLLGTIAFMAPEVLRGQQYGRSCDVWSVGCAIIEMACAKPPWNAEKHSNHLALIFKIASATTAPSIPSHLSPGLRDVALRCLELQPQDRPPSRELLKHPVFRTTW

Chain of SRSF protein kinase 1 (Q96SB4 whole entry): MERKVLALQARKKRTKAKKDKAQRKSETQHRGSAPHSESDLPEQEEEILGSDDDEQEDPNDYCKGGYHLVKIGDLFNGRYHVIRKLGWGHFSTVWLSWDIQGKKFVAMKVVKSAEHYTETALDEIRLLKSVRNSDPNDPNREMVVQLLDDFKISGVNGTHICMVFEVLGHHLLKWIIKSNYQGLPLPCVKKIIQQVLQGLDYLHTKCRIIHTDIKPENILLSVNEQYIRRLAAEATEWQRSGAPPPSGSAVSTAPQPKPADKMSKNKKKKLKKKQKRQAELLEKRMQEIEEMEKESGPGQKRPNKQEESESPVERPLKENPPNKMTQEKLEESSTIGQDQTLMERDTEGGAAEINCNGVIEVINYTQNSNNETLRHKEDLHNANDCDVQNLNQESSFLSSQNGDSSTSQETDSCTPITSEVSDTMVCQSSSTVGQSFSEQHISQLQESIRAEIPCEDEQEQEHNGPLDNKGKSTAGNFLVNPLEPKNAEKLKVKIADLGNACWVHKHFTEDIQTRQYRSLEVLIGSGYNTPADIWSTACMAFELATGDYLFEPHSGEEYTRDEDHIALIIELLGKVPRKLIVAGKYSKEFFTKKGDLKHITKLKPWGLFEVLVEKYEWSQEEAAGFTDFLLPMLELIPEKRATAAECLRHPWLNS
Chain of Mitogen-activated protein kinase 7 (Homo sapiens) (Q13164 2-816 limits assumed): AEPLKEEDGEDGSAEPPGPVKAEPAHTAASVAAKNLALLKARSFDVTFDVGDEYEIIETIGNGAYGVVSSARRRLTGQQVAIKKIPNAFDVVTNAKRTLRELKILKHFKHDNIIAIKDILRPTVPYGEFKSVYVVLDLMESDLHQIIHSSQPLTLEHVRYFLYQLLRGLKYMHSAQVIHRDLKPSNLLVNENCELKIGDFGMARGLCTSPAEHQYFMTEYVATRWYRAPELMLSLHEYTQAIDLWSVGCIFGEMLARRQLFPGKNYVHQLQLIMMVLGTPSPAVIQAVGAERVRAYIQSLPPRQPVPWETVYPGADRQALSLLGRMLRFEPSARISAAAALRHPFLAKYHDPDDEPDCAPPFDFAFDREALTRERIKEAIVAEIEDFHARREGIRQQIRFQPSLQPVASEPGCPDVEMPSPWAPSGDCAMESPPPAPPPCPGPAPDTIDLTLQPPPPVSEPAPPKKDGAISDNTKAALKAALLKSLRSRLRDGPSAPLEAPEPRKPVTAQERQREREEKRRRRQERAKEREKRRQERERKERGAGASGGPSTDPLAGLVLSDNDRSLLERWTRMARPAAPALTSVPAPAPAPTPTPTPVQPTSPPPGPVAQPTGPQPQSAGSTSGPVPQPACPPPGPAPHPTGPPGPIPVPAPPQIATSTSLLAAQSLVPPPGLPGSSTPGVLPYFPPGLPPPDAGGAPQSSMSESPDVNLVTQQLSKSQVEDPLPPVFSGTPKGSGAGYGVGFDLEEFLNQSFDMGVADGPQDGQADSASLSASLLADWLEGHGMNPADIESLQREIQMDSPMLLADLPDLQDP
Chain of Mitogen-activated protein kinase kinase kinase kinase 5 (Homo sapiens) (Q9Y4K4 whole entry, looked up, canonical isoform): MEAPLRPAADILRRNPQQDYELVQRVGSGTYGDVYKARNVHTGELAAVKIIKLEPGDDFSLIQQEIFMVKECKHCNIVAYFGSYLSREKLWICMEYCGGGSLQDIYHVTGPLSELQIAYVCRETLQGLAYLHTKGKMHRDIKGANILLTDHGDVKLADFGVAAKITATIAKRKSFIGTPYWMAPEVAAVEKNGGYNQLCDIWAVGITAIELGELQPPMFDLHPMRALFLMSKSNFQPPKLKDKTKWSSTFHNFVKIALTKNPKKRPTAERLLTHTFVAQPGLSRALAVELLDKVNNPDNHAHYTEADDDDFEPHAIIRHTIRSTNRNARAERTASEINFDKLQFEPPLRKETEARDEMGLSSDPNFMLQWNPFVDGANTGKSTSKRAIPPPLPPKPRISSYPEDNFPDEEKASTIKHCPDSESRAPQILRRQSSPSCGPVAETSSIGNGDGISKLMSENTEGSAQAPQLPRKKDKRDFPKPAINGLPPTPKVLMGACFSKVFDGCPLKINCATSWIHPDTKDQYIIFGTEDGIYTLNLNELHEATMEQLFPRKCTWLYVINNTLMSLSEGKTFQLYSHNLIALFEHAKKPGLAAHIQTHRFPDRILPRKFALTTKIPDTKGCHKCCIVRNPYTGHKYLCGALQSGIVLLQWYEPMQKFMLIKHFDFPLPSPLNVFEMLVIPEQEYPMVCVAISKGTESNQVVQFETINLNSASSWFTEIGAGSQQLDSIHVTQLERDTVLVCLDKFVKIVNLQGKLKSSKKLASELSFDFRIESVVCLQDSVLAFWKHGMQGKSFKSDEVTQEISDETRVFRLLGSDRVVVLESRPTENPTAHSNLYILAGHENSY
Chain of Glycogen synthase kinase-3 beta (P49841 whole entry, looked up): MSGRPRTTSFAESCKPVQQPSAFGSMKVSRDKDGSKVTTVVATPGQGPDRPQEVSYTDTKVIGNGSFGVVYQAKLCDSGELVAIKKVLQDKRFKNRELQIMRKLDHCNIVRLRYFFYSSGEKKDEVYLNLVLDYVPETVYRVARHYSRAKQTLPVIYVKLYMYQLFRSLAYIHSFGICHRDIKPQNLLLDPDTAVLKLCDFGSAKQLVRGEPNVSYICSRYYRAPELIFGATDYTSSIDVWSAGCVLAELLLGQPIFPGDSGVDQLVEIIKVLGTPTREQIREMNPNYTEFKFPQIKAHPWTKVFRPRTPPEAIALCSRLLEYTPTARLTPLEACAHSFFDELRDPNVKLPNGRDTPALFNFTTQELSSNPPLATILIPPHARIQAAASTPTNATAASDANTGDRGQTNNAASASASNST
Chain of Tyrosine-protein kinase HCK (Homo sapiens) (P08631 2-526 limits assumed): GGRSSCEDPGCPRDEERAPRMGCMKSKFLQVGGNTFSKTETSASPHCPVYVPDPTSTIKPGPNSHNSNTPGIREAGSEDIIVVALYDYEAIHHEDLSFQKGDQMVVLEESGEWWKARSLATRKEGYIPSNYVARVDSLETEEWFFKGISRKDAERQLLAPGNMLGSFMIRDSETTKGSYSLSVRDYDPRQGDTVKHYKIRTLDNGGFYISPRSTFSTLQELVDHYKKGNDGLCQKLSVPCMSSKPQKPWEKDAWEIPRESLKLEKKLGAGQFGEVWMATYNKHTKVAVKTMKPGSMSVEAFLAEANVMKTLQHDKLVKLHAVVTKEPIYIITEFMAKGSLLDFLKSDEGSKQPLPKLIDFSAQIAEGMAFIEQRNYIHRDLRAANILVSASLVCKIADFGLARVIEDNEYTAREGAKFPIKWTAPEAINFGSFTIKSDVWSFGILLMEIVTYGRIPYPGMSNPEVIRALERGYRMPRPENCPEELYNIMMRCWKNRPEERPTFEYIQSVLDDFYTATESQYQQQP

For `C=CC(=O)Nc1cccc(C(=O)Nc2ccc(Nc3cc(-c4[nH]c(SC)nc4C)ccn3)cc2)c1`, which % of control (SRSF protein kinase 1; at 1 µM) is on record?
The % of control was 99%.

And the % of control (SRSF protein kinase 1; at 5 µM)?
Its % of control is 86%.

For `CCn1c(-c2nc3cc(C(=O)N4CCCC(N)C4)ccc3n2C)cc2ccccc21` (configuration not stated), which pXC50 [1] is on record?
The pXC50 was 5.4 M.

For `CN(C(=O)c1cnn2cccnc12)c1cc2c(cc1N1CCOCC1)C(=O)N(C[C@@H](F)C(C)(C)O)C2`, which dTM [2] is on record?
The dTM was -0.4 K.

`Nc1cnc(N2CCc3cc(S(=O)(=O)Nc4c(F)cc(Cl)cc4F)cc(N4CCCC4=O)c32)nc1` [TP-020n] was tested. Which % of control (Focal adhesion kinase 1) did it give?
The % of control was 99%.

With `O=C(NOC[C@H](O)CO)c1ccc(F)c(F)c1Nc1ccc(I)cc1F` as the compound, how does the % of control [3] read?
The % of control was 100%.

And the % of control [4]?
Its % of control is 88%.

Which % of control [5] does the source give for `Cn1cc(-n2cnc3c(NCc4nc5cc(Cl)c(Cl)cc5[nH]4)nc(N4CCOCC4)nc32)cn1` here?
The % of control was 2.85%.

What does the source list for `CC[C@@H]1[C@H](F)C(=O)N[C@@H]1COc1nccc2cc(C(N)=O)c(OC)cc12` [ZIMLOVISERTIB]?
% of inhibition [6]: 10%; % of inhibition ([7]; at 0.01 µM): 15.9%; % of inhibition ([7]; at 0.04 µM): 3.7%; % of inhibition ([7]; at 0.2 µM): 0.2%; % of inhibition ([7]; at 1 µM): -8.2%; % of inhibition ([7]; at 5 µM): 7%

Which % of control [8] does the source give for `Cc1cc(F)c(C(=O)Nc2cccc(-c3nncn3C(C)C)n2)cc1-n1cnc(C2CC2)c1` here?
Its % of control is 100%.

And the % of control [9]?
The % of control was 79%.

With `N#Cc1cccc(-c2c[nH]c3ncnc(N4CCOCC4)c23)c1` as the compound, how does the % of inhibition [10] read?
Its % of inhibition is 45%.
